In PubChem BioAssay (NCI) one finds TGI and GI50 data, which are given here for 14 molecules.

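These data come from cells grown in 96-well plates and exposed to compound for 48 hours at five concentrations. Here, GI50 denotes the concentration required for 50% inhibition of growth. TGI: concentration producing complete growth inhibition.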 Where only a bound is given, the exact number is not on record here.

Among the test systems are ACHN renal; BT-549 breast; HCT-116 colon; IGROV1 ovarian; NCI-H226 lung; OVCAR-5 ovarian; SF-268 CNS; SK-MEL-28 melanoma; U251 CNS; OVCAR-8 ovarian.
Holding throughout (test): NCI anticancer screen, dose series, 48 h

In the case of `[N-]=[N+]=CC(=O)OCC1SCCCS1`, the TGI with ACHN renal, with BT-549 breast, with HCT-116 colon, with IGROV1 ovarian, in the test with NCI-H226 lung and in the test with OVCAR-5 ovarian was > 100 µM in each case. The TGI in the test on SF-268 CNS, in the test on SK-MEL-28 melanoma and in the test with U251 CNS was > 100 µM each time.

For `CCOC(=O)/C=C(\C(=O)OCC)n1ccc(N)nc1=O`, the TGI with ACHN renal, in the test on BT-549 breast, in the test on HCT-116 colon, in the test with IGROV1 ovarian, in the test with NCI-H226 lung and in the test on OVCAR-5 ovarian was > 100 µM in each case. The TGI in the test on OVCAR-8 ovarian, in the test on SF-268 CNS and with U251 CNS was > 100 µM in each case.

As for `C/C(=N\NC(N)=S)C(CN(CC(C)C)CC(C)C)C(=O)Nc1ccc(C)cc1C` (centres undefined), the TGI in the test with ACHN renal, with HCT-116 colon, with IGROV1 ovarian, with NCI-H226 lung, with OVCAR-5 ovarian and in the test on OVCAR-8 ovarian was > 100 µM in each case. The TGI in the test with SF-268 CNS, in the test on SK-MEL-28 melanoma and in the test with U251 CNS was > 100 µM in each case.

Regarding `Cc1cc(S(=O)(=O)O)c(NC(=O)C(=O)C2C=CCS2(=O)=O)cc1Cl` (centres undefined), the TGI in the test with ACHN renal, in the test on HCT-116 colon, in the test on IGROV1 ovarian, in the test with NCI-H226 lung, in the test with OVCAR-5 ovarian and with OVCAR-8 ovarian was > 100 µM each time. Further, the TGI in the test on SF-268 CNS, in the test on SK-MEL-28 melanoma and with U251 CNS was > 100 µM throughout.

Consider `C=CCNC(=O)NC1=CSC2=NC(=O)C3(NN12)c1ccccc1-c1ccccc13`, for which the TGI in the test with ACHN renal, with BT-549 breast, in the test with HCT-116 colon, with IGROV1 ovarian, with NCI-H226 lung and in the test on OVCAR-5 ovarian was > 10 µM in each case. The TGI in the test with OVCAR-8 ovarian, in the test on SF-268 CNS and in the test on SK-MEL-28 melanoma was > 10 µM in each case.

`O=[N+]([O-])c1ccc(N=Nc2c(O)c(S(=O)(=O)O)cc3cc(S(=O)(=O)O)ccc23)cc1`: the TGI in the test on ACHN renal, in the test with BT-549 breast, with HCT-116 colon, with IGROV1 ovarian, in the test with NCI-H226 lung and in the test with OVCAR-5 ovarian was > 100 µM in each case. The TGI with OVCAR-8 ovarian, in the test on SK-MEL-28 melanoma and in the test on U251 CNS was > 100 µM each time.

Take `C(=C\c1ccccc1)/C=N/c1nc2cc3sc(/N=C/C=C/c4ccccc4)nc3cc2s1`: the TGI with ACHN renal, in the test on BT-549 breast, with HCT-116 colon, with IGROV1 ovarian, in the test on OVCAR-5 ovarian and in the test with OVCAR-8 ovarian was > 100 µM in each case. Besides, the TGI with SF-268 CNS, in the test on SK-MEL-28 melanoma and with U251 CNS was > 100 µM in each case.

On to `O=C1c2c(n(Cc3ccccc3)c(=O)n2Cc2ccccc2)C(=O)N1Cc1ccccc1`, for which the TGI with ACHN renal, in the test on HCT-116 colon, in the test on IGROV1 ovarian, with NCI-H226 lung, with OVCAR-5 ovarian and in the test with OVCAR-8 ovarian was > 100 µM in each case. Also, the TGI in the test on SF-268 CNS, in the test on SK-MEL-28 melanoma and in the test on U251 CNS was > 100 µM in each case.

For `CCOC(=O)C(=Cc1ccc(C(=O)OC)cc1)C(=O)OCC`, the TGI was found to be 3.48 µM with ACHN renal; 12.5 µM with HCT-116 colon; 7.73 µM in the test with IGROV1 ovarian; 4.45 µM with NCI-H226 lung; 21.9 µM with OVCAR-5 ovarian; 10.3 µM with OVCAR-8 ovarian. Besides, the TGI in the test with SF-268 CNS stood at 6.51 µM; in the test with SK-MEL-28 melanoma, 3.34 µM; in the test on U251 CNS, 4.77 µM.

Turning to `COC(=O)c1cc(C#N)[nH]c1-c1ccc(C)s1`, the TGI in the test on ACHN renal, with BT-549 breast, in the test on HCT-116 colon, in the test with NCI-H226 lung, with OVCAR-5 ovarian and in the test on OVCAR-8 ovarian was > 100 µM in each case. In addition, the TGI in the test with SF-268 CNS, in the test on SK-MEL-28 melanoma and with U251 CNS was > 100 µM each time.

With `O=C(NC1CCN(Cc2ccccc2)CC1)c1cc2nc(-c3ccc(Cl)s3)cc(C(F)(F)F)n2n1`, the GI50 in the test with BT-549 breast was > 100 µM; in the test with HCT-116 colon, 4.84 µM; in the test with IGROV1 ovarian, > 100 µM; in the test on NCI-H226 lung, > 100 µM; in the test with SF-268 CNS, > 100 µM; in the test with U251 CNS it was 5.98 µM. For the same molecule, the TGI in the test on BT-549 breast, in the test with HCT-116 colon, in the test on IGROV1 ovarian, with NCI-H226 lung, in the test with SF-268 CNS and with U251 CNS was > 100 µM each time.

Turning to `[N-]=[N+]=NCc1cccc(Nc2cc(=O)[nH]c(=O)[nH]2)c1`, the TGI in the test on ACHN renal, in the test with BT-549 breast, in the test on HCT-116 colon, in the test with IGROV1 ovarian, in the test with NCI-H226 lung and in the test on OVCAR-5 ovarian was > 100 µM throughout. Moreover, the TGI in the test with OVCAR-8 ovarian, in the test with SF-268 CNS and with SK-MEL-28 melanoma was > 100 µM each time.

In the case of `COC(=O)/C=C1\CCC(C)(C(=O)NS(=O)(=O)c2ccc(C)cc2)C1(C)C` (centres undefined), the TGI in the test on ACHN renal, in the test with BT-549 breast, with HCT-116 colon, with IGROV1 ovarian, in the test with NCI-H226 lung and in the test with OVCAR-5 ovarian was > 100 µM in each case. For the same molecule, the TGI with OVCAR-8 ovarian, in the test on SF-268 CNS and with U251 CNS was > 100 µM in each case.

For `COc1ccc(N=N/C(=N/NC(=O)c2ccccc2)c2ccc(N(CCC#N)CCC#N)cc2C)cc1`, the TGI in the test on ACHN renal, in the test with BT-549 breast, with HCT-116 colon, with IGROV1 ovarian, in the test on NCI-H226 lung and with OVCAR-5 ovarian was > 100 µM throughout. In addition, the TGI with OVCAR-8 ovarian, with SF-268 CNS and in the test with U251 CNS was > 100 µM in each case.
